Assay results taken from US20130197071A1, “PRODUCTION OF LIPOXYGENASE INHIBITORS VIA FUNGAL BIOSYNTHETIC PATHWAY” (UNIVERSITY OF SOUTHERN CALIFORNIA, priority 2012, published 2013).
“Also recorded” adds a separate entry of the source. Read-outs that look alike come from different tables or passages of the source.

Legend:
[1] = Solubility of compound 5 in aqueous culture media; type: physicochemical; details: liquid lactose minimal medium culture
Source text: The fungal strain used to over-produce compound 5 contains genetic alterations as described in Table 1. The native promoter of afoA, the gene that codes for the pathway-specific transcription activator of the asperfuranone pathway was replaced with the inducible alcohol dehydrogenase promoter, alcA. The afoD gene, that codes for the hydroxylase in the asperfuranone pathway, was deleted to enable the accumulation of intermediate, compound 5.^11 It should be noted that the afo cluster is silent under normal laboratory growing conditions. The wild type strain, thus, produced non-detectable compound 5 and asperfuranone (4).

[2] = biological target: T1, soybean LOX-1 (Lipoxygenase-1, 15-Lipoxygenase) (Glycine max, UniProt P08170); assay: Soybean lipoxygenase-1 (LOX-1) inhibition assay, spectrophotometric at 234 nm, linoleic acid substrate; type: biochemical; details: for LOX-1 inhibition (result in words): screening for soybean LOX-1 inhibition
T1 construct: purchased Cayman Chemical #60712
T1 sequence (P08170 1-839): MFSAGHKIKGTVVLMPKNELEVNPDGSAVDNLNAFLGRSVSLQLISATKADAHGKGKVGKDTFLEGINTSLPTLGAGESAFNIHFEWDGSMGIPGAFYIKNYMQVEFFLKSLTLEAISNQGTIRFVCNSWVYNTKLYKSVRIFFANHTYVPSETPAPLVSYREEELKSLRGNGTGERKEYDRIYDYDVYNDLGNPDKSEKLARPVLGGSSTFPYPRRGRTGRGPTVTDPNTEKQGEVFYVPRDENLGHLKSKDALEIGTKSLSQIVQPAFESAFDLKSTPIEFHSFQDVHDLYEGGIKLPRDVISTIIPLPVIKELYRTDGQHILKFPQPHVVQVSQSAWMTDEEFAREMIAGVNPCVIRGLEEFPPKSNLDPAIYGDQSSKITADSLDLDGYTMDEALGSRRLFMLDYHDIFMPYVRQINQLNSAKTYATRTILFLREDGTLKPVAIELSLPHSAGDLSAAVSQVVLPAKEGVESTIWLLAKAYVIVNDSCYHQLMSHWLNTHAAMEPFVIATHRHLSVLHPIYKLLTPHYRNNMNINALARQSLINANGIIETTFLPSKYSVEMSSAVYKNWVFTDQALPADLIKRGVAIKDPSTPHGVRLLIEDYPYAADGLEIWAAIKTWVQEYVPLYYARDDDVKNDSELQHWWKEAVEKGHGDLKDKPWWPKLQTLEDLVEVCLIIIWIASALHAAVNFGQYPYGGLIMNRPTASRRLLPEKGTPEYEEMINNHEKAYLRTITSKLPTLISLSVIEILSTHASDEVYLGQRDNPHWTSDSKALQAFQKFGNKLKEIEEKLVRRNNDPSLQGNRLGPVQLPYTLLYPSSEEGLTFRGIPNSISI
Method: ^1H and ^13C NMR spectra were recorded on a Varian Mercury Plus 400 spectrometer. Chemical shifts are reported in ppm relative to CDCl3 (^1H, δ 7.26; ^13C, δ 77.0) or acetone-d6 (^1H, δ 2.05; ^13C, δ 30.0, 206.0). ^1H NMR data is reported as: chemical shift, multiplicity (s=singlet, d=doublet, t=triplet, q=quartet, m=multiplet), coupling constant, and integration. Infrared spectra were recorded on a JASCO FTIR-4100. Infrared frequencies are reported in reciprocal centimeters. High resolution electrospray ionization mass was obtained on an Agilent 6210 time of flight LC-MS. Reactions were monitored by analytical thin-layer chromatography on EMD silica gel-60^F254 plates. Flash chromatography was performed on EMD silica gel 60, 70-230 mesh. All reagents were used without further purification unless otherwise noted. Reagents were purchased from Sigma-Aldrich, and Alfa Aesar. Diethyl ether (anhydrous) and 1,2-dichloroethane (anhydrous) were used directly from the bottle. Water sensitive reactions were performed under a nitrogen atmosphere with oven-dried glassware. Kinetic experiments for lipoxygenase inhibition were recorded on a Shimadzu UV-2401PC at 26° C. Materials for the lipoxygenase assay such as linoleic acid, 15-Lipoxygenase (soybean PO, and (+)-sclerotiorin were purchased from Cayman Chemicals.
The enzyme assay was performed according to Axelrod et. al.^18 Each solution was prepared and measured at room temperature. Enzyme kinetics was measured on a Shimadzu UV-2401PC at a wavelength of 234 nm in a quartz cuvette (FIG. 6). For the assay, the linoleic acid substrate was prepared by mixing 20 μL linoleic acid (Cayman Chemical #760716) with 20 μL KOH (Cayman Chemical #760713) and 40 μL double distilled water. Lipoxygenase-1 (Cayman Chemical #60712) was diluted from original stock concentration to a concentration of 100 U/mL in the cuvette. The semisynthetic azaphilones were prepared as stock concentrations in dimethylsulfoxide (DMSO) from 20 μM to 10 mM; 54, was added to the assay mixture to give the desired final concentration of the inhibitor with 1% of DMSO in the assay.
The spectrophotometric assay is based on monitoring the reaction, catalyzed by LOX-1 to convert linoleic acid (L) to the hydroperoxide (LOOH), at 234 nm. […] The reaction is initiated when the non-heme iron of LOX-1 in the ferric state is reduced by the substrate L. While in the enzyme-substrate complex, L is oxidized and converted to the peroxide free radical (LOO.), and subsequently released from the enzyme as LOOH Inhibitors can interfere in the process in several different ways to prevent the generation of LOOH by the chelation of iron, removal of oxygen or prevention of free radical formation.
Prior to measurements, a sample with buffer was used as a blank. In a quartz cuvette, each sample was prepared with 482.54, 0.2 M borate buffer (at a pH of 9.0) mixed with 54, inhibitor and 54, substrate by pipetting the solution. The cuvette was placed in the spectrophotometer and measured for 120 seconds and then rapidly 7.54, lipoxygenase-1 was added and mixed to initiate the reaction. Measurements were recorded every 30 seconds for 7.5 minutes.
Inhibition of an enzyme at 50% can be experimentally measured by monitoring enzyme kinetics. A kinetic study generates a curve where the slope provides the initial velocity (Vo) of the enzyme. For each sample with different inhibitor concentrations the initial velocity was derived from a linear segment between […]. The absorbance was used directly and not converted into concentration units. […] The concentration of inhibitor at which 50% inhibition occurred (as measured by change in Vo) was reported as the IC50.

[3] = biological target: T1, soybean LOX-1 (Lipoxygenase-1, 15-Lipoxygenase); details: literature report (ref. 5); cited from earlier work
[4] = soybean LOX-1, linoleic acid, 0.2 M borate buffer pH 9.0, 1% DMSO, 234 nm, read-out: Lipoxygenase-1 Inhibitory Activity IC50 (μM) ± s.d.

Row | Compound | IC50 [2, 4] [µM] | also measured
1 | CC[C@H](C)/C=C(C)/C=C/C(=O)Cc1cc(O)c(C)c(O)c1C=O (stereo in doubt) [Compound 5, 2,4-dihydroxy-6-(5,7-dimethyl-2-oxo-trans-3-trans-5-nonadienyl)-3-methylbenzaldehyde] | 97.2 ± 2 | Solubility in aqueous media (in words) [1]: poorly dissolved in aqueous media
2 | CC[C@H](C)/C=C(C)/C=C/C1=CC2=C(Cl)C(=O)[C@](C)(OC(C)=O)C(=O)C2=CO1 [Compound 1, (+)-sclerotiorin, reference compound] | 7.8 ± 2.4 | LOX-1 inhibition of (+)-sclerotiorin according to a report [3]: potent LOX-1 inhibition
3 | CC[C@H](C)/C=C(C)/C=C/C1=CC2=CC(=O)C(C)(OC(C)=O)C(=O)C2=CO1 (stereo partly drawn) [Compound 7] | 4.9 ± 3.3 | LOX-1 inhibition (result in words) [2]: highest lipoxgyenase-1 inhibition; also recorded: most effective
4 | CC[C@H](C)/C=C(C)/C=C/C1=CC2=C(Cl)C(=O)C(C)(OC(C)=O)C(=O)C2=CO1 (stereo partly drawn) [Compound 8] | 2.3 ± 0.9 | 
5 | CC[C@H](C)/C=C(C)/C=C/C1=CC2=C(Cl)C(=O)C(C)(O)C(=O)C2=CO1 (stereo partly drawn) [Compound 12] |  | IC50 [2]: 7.9 ± 3.9 µM
6 | CCOC(=O)C=C1C2=COC(/C=C/C(C)=C/[C@@H](C)CC)=CC2=CC(=O)C1(C)O (stereo partly drawn) [Compound 15] | > 100 | 
7 | CCOC(=O)C=C1C2=COC(/C=C/C(C)=C/[C@@H](C)CC)=CC2=C(Br)C(=O)C1(C)O (stereo partly drawn) [Compound 16] | > 100 | 
8 | CCOC(=O)C=C1C2=COC(/C=C/C(C)=C/[C@@H](C)CC)=CC2=C(I)C(=O)C1(C)O (stereo partly drawn) [Compound 17] | > 100 | 
9 | asperfuranone [Compound 4] | > 100 | 

Now from value to compound, other results behind:

Row | IC50 [2, 4] [µM] | Compound | also measured
10 | 6.8 ± 4.5 | CC[C@H](C)/C=C(C)/C=C/C1=CC2=C(Br)C(=O)C(C)(OC(C)=O)C(=O)C2=CO1 (stereo partly drawn) [Compound 9] | 
11 | 17.4 ± 8.1 | CC[C@H](C)/C=C(C)/C=C/C1=CC2=C(I)C(=O)C(C)(OC(C)=O)C(=O)C2=CO1 (stereo partly drawn) [Compound 10] | 
12 | 10.7 ± 6.6 | CC[C@H](C)/C=C(C)/C=C/C1=CC2=CC(=O)C(C)(O)C(=O)C2=CO1 (stereo partly drawn) [Compound 11] | 
13 | 3.2 ± 1.5 | CC[C@H](C)/C=C(C)/C=C/C1=CC2=C(Br)C(=O)C(C)(O)C(=O)C2=CO1 (stereo partly drawn) [Compound 13] | LOX-1 inhibition (result in words) [2]: highest lipoxgyenase-1 inhibition; also recorded: most effective
14 | 19.6 ± 11.9 | CC[C@H](C)/C=C(C)/C=C/C1=CC2=C(I)C(=O)C(C)(O)C(=O)C2=CO1 (stereo partly drawn) [Compound 14] | 
